We go through 87 molecules from a melting point compilation (Tetko et al.; mined from patent text by program, amines drawn as free bases though some values may be those of a salt).

In turn, `COC(=O)CCS(=O)c1cc(C(C)(C)C)c(O)c(C(C)(C)C)c1` (configuration not stated) showed a melting point of 106 to 108 °C. As for `CC(=O)NC(=Cc1c[nH]c2cc(C)ccc12)C(=O)O`, the melting point was 204 to 206 °C. Then `Clc1ccc(-c2[nH]nc(N3CCN(C4CC4)CC3)c2-c2ccncc2)cc1`, with 264 to 265 °C; and `CCOC(=O)c1ccc(NCC(C)Oc2ccc(F)cc2)cc1` (configuration not stated), with 96 to 98 °C; and `Cc1cc(C)n(-c2nc(Nc3ccc(-c4ccccc4)cc3)c3ccccc3n2)n1`, with 268 to 270 °C.

For the molecule `COc1ccc(CCNC2CCCc3c2ccc(=O)n3C)cc1` (configuration not stated), the melting point was in the range of 97 to 99 °C. Turning to `CCC(=O)Nc1cccc(C2(c3cc(C(=O)CC)n(CC)c3)N=C(N)N(C)C2=O)c1` (configuration not stated), the melting point was in the range of 120 to 141 °C. Then `O[C@H]1C[C@@H](c2ccccc2)c2ccc(Cl)cc21`, with 109 °C; and `FC1(F)c2ccccc2Cc2ccccc2C1(F)F`, with 53.5 to 55 °C; and `CC(CO)n1nc(-c2cnc(N)nc2-c2ccccc2)ccc1=O` (configuration not stated), with 222 to 223 °C. With `CC(=O)c1cc2c(s1)SCCN(CCCCN1CCN(c3ncccn3)CC1)C2=O` the figure was 118 to 120 °C; with `Nc1ccc(Cl)c(Cl)c1CO`, 134 to 135 °C.

Take `CCc1cccc(C)c1CNc1cc(OC)nc2c1nc(C)n2C`: the melting point lay within 165 to 166 °C.

As to `O=C(CO[C@H]1NC(=O)[C@@H]1NC(=O)c1ccccc1)CC(=O)OCc1ccc([N+](=O)[O-])cc1`, the melting point was 138 to 139 °C. Then `CC(C)(C)OC(=O)N1C[C@H](NS(=O)(=O)c2ccc(Cl)cc2)C[C@H]1C=O`, with 120 to 122 °C. Then `CCOc1ccc(S(=O)(=O)Cl)cc1C(=O)O`, with 108 to 110 °C. With `CC(c1ccc(Cl)cc1)N1CCC2(CC1)Cc1ccccc1O2` (configuration not stated) the figure was 64 to 66 °C; with `CCCCCC1CCN([C@H]2CC[C@H](C(=O)OC)CC2)CC1`, 5 °C. On to `CC(=O)OC1CCc2c(Nc3ccc(C#N)cc3)ncnc21` (configuration not stated), for which the melting point fell in the range of 215 to 217 °C. Then `CC1CC(=O)c2c(ccc(F)c2Cl)N1` (single isomer, unassigned; (-)), with 117 to 119 °C; and `Cc1cn2c(C)nc3c(C)nn(C)c3c2n1`, with 198 to 200 °C; and `Cc1noc(NS(=O)(=O)c2cccc(Cl)c2)c1Br`, with 132 to 134 °C. With `CCOC(=O)C1=CNc2ccnn2C1` the figure was 198 to 200 °C; with `CC(C)CCCC(C)C1CCC2C3CC=C4CC(NCCCNC(=O)CCCCCNc5ccc([N+](=O)[O-])c6nonc56)CCC4(C)C3CCC12C` (configuration not stated), 78 to 80 °C; with `Cc1nc(C(c2c(Cl)cccc2Cl)n2cncn2)nc(C)c1N` (configuration not stated), 158 to 159 °C. Consider `COc1cc2c(cc1-c1cncs1)-c1c(-c3cncs3)c3c(n1CC2)C(=O)N(C(C)(C)C)CCOC3`, for which the melting point lay within 254 to 255 °C. With `CCCc1c(CSc2nnc(SCC(=O)O)s2)ccc(C(C)=O)c1O` the figure was 116 to 118 °C. Then `O=[N+]([O-])c1c(Br)cccc1CS(=O)(=O)c1ccccc1`, with 138 to 141 °C; and `CC(C)(C)c1cc(CCc2ccccc2NC(=O)N2CCCCCC2)cc(C(C)(C)C)c1O`, with 136 to 138 °C; and `CN(C)C(=O)C(=O)c1ccc(Cl)cc1C(=O)c1ccccc1`, with 88 to 90 °C. Then `C#Cc1ccc(CO[C@@H]2COc3nc([N+](=O)[O-])cn3C2)nc1`, with 135 to 136 °C. The molecule `CCCCNC(=O)C(O[Si](C)(C)C(C)(C)C)C(c1ccccc1)c1ccccc1` (configuration not stated) gave a melting point of 73 to 74 °C. Then `CCCC(=O)c1cc(OC)c(O)c([N+](=O)[O-])c1`, with 92 to 93 °C. With `CC(C)(CC(=O)Nc1cccc(OCc2ccc3ccc(F)cc3n2)c1)C(=O)O` the figure was 209 to 210 °C. Then `CCCn1c(=O)c2nc(CC(C)c3ccccc3)[nH]c2n(CCC)c1=O` (configuration not stated), with 136 to 137 °C; and `Cn1cc(Cc2cc3cc(C(F)(F)F)ccc3n2S(=O)(=O)c2cccc(C(C)(C)C)c2)cc1C(=O)O`, with 160 °C; and `CCOc1cc(CF)nc(N)n1`, with 85 to 87 °C. As for `O=C(NCCc1ccccc1)Nc1ccc(CN2C(=O)[C@H]3CCC[C@H]3N(C(=O)CN3C(=O)c4ccccc4C3=O)c3ccccc32)cc1` (relative stereo), the melting point lay in the range of 145 to 147 °C. Then `Cc1cc(C=C2SC(=S)NC2=O)cc(C(C)(C)C)c1O`, with 210 to 216 °C; and `c1ccc(C2NCCc3c2[nH]c2ccccc32)cc1` (configuration not stated), with 175 to 177 °C; and `COC(=O)c1c(SC)nn(-c2c(Cl)cc(Cl)cc2Cl)c1N`, with 160 to 162 °C. In the case of `CNC(=O)c1sc2cnccc2c1Oc1ccc(COC)cc1`, the melting point lay within 163 to 164 °C.

In the case of `O=[N+]([O-])c1cc(F)c(N2CCSCC2)c(F)c1`, the melting point lay within 104 to 105 °C. With `COC(=O)C(=COCF)c1ccccc1CBr` the figure was 73 to 76 °C; with `CN(C(=O)c1ccc2c(c1)nc(NC(=O)c1cccs1)n2CCCO)C1CCCCC1`, 105 to 107 °C.

As for `O=c1cc(Oc2cccc(OCc3ccccc3)c2)c2ccccc2[nH]1`, the melting point was 262 to 265 °C.

Turning to `CCC(=O)Nc1cccc(-c2ccc(Cl)nn2)c1`, the melting point fell in the range of 184 to 187 °C.

In turn, `CC(C)c1cc(CCC(=O)OCC(C)(C)C2OCC3(CO2)COC(C(C)(C)COC(=O)CCc2cc(C(C)C)c(O)c(C(C)(C)C)c2)OC3)cc(C(C)(C)C)c1O` (configuration not stated) returned a melting point of 47 to 57 °C. In the case of `O=C(Nc1ccc(Cl)nc1)c1ccc(Cl)o1`, the melting point was in the range of 143 to 144 °C.

Take `CCOC(=O)COc1ccc(NC(=O)NC(=O)c2ccc(C#N)cc2)cc1`: the melting point was 200 to 203 °C. With `NC(=O)c1nn(C2OC(CO)C(O)C2O)nc1C(N)=O` (configuration not stated) the figure was 210 to 212 °C; with `CCOC(=O)C(=CNC1CC1)C(=O)c1cc(Cl)c(F)c(Cl)c1F`, 71 to 74 °C.

`COc1cc2c(cc1C(F)(F)F)N(C(=O)Nc1cccc(-c3cncnc3)c1)CC2`: the melting point lay within 226 to 228 °C. With `CCCc1c(C(=O)C(C)C)c2ccc(CC(N)=O)cc2n1Cc1ccccc1Cl` the figure was 146 to 148 °C; with `CCOCC1OC(n2cnc3c(NC4CCCC4)nc(Cl)nc32)C(O)C1O` (configuration not stated), 114 to 116 °C. Then `CCOC(=O)CC(=O)N(C)c1ccccc1N`, with 63 to 64 °C. With `Nc1sc(-c2ccncc2)c(CN(C2CCCCC2)C2CCCCC2)c1C(=O)c1ccc(Cl)cc1` the figure was 214 to 216 °C; with `CC=CCOc1ccc(C(=O)C=Cc2cccc(OC)c2)c(O)c1`, 97 to 100 °C; with `c1ccc(C2(Cc3ccncc3)c3ccccc3-c3sccc32)cc1` (configuration not stated), 88 to 92 °C.

Take `COC(=O)CCCCCCCCCCCCCCCCCCCCC(=O)c1c(C)cc(OC)c(OC)c1O`: the melting point was 72 to 72.5 °C. With `OCC(O)COc1ccc(Br)cc1` (configuration not stated) the figure was 69 to 75 °C; with `CCON=C(C(C)=NOCc1ccccc1C(=NOC)C(=O)OC)c1ccc(Oc2ccc(Cl)cc2)cc1`, 90 to 93 °C. Then `CC1CC2C3CC(Cl)C4=CC(=O)C=CC4(C)C3C(O)CC2(C)C1C(=O)CO` (configuration not stated), with 128 °C; and `Cc1ccc(N2CCN([C@@H](Cc3ccc(OCCc4nc(-c5ccccc5)oc4C)c(Br)c3)C(=O)O)CC2)cc1`, with 203 to 205 °C. With `CSc1nc(OCC(F)(F)F)nc2sc(C)cc12` the figure was 97 °C; with `O=C(O)COc1cc(Cl)sc1C(=O)O`, 214 °C; with `O=C(O)C(CCN1C(=O)c2ccccc2C1=O)Oc1ccc(-c2ccc(-c3c(Cc4ccccc4)oc4ccccc34)cc2)cc1` (configuration not stated), 182 to 184 °C.

The molecule `COc1cccc(CNC(=O)c2nc3scc(C(=O)NCc4ccc(C(=O)O)cc4)c3c(=O)[nH]2)c1` yielded a melting point of 254 to 255 °C. Then `O=C(NCc1ccccn1)c1nc(-c2ccccc2)c(-c2ccc(=O)n(Cc3ccccc3)n2)s1`, with 172 to 174 °C; and `O=C(CCc1ccccc1)c1ccc(Cl)cc1`, with 78 to 79 °C. With `CC(=O)OC1CCC2(C)C(=CCC3C2CCC2(C)C(OC(C)=O)CCC32)C1` (configuration not stated) the figure was 163 to 165 °C; with `Nc1ccc2c(c1)CN(Cc1ccccc1)C2`, 110 to 115 °C; with `Clc1cccc(C(c2ccnc3ccccc23)n2ccnc2)c1` (configuration not stated), 184 °C. With `O=C(O)CCC1CC(c2ccccc2)CCC1O` (configuration not stated) the figure was 154 to 155 °C; with `COCc1cc(Cl)ncn1`, 34 to 36 °C. `CN1Cc2c(-c3noc(CNC4CC4)n3)ncn2-c2ccc(F)cc2C1=O` registered a melting point of 176 to 178 °C. With `N#Cc1c(CNC(=O)c2ccc(-n3cccc3)cc2)nn(-c2ccc(Cl)cc2Cl)c1-c1ccc(Cl)cc1` the figure was 121 °C; with `CC(=O)n1c2ccccc2c2ccc(C(=O)CCl)cc21`, 175 to 176 °C; with `CC(=O)N1CCN=C1c1ccc(NC(=O)C2=Cc3ccccc3OCC2)cc1`, 222 to 224 °C. Then `CCOC(=O)c1cc(NCc2ccccc2)c(Nc2ccccc2)c(S(N)(=O)=O)c1`, with 160 to 161 °C; and `COc1ccc(Nc2ccn(-c3ccc(OCC(=O)O)cc3)n2)cc1`, with 163 to 165 °C.

`CCOC(=O)c1cn2c3c(c(C(C#N)C(=O)OCC)c(F)cc3c1=O)CCN2C` (configuration not stated) returned a melting point of 153 to 154 °C. Then `CS(=O)(=O)c1cccc(Cc2cc3c(F)ccc(-c4cccc(C(=O)NCC(N)=O)c4)c3s2)c1`, with 107 to 108 °C; and `OCc1cc2cccc3cc(-c4ccc(O)cc4)c1n23`, with 185 to 190 °C; and `Cc1c(NC(=O)c2ccc(OC[C@@H]3CCCO3)cc2)ccc2cc(CN3CCC(C)(O)CC3)[nH]c12`, with 169 °C.

With `O=CC(=Cc1ccc(Cl)cc1)C(C=O)=Cc1ccc(Cl)cc1`, the melting point lay within 172 to 173 °C. Then `CCCC1=NN(c2ccncc2)C(=O)C1=CNc1ccccc1CC`, with 159 °C.

Usually melting point stands for the temperature, or range, at which the solid turns liquid.
